# System: DU145 cells
# Assay: Clonogenic survival (colony formation) assay
# Format: cell-based, human
# Settings: JQ1 for 3 days, harvested at day 10
# Description: FIGS. 26A-26I. Determination of the role of DUB3-mediated stabilization of BRD4 in BET inhibitor resistance using both loss of function and gain of function approaches. (FIG. 26A) Western blot analysis of indicated proteins in PC-3 cells infected with lentivirus expressing control or DUB3-specific shRNA for 24 hours and then co-transfected with plasmids for wild-type (WT) and mutants of HA-DUB3 for 24 hours. (FIG. 26B) Western blot analysis of indicated proteins in PC-3 cells infected with lentivirus expressing control or DUB3-specific shRNAs for 24 hours and then co-transfected with the indicated plasmids for 24 hours. Cells were treated with MG132 for 8 hours before harvested. (FIG. 26C) DU145 cells were infected with lentivirus expressing control or DUB3-specific shRNAs. After 48 hours puromycin selection, cells were treated with I-BET (5 μM), PD0332991 (5 μM) or both followed by MTS assay. All data are shown as mean values±SD (n=6). ***P<0.001, n.s., not significant. (FIG. 26D, FIG. 26E) DU145 cells were infected with lentivirus expressing indicated shRNAs and/or plasmids. After 48 hours puromycin selection, cells were treated with JQ1 (2 μM), PD0332991 (5 μM) or both followed by MTS assay (FIG. 26D) and Western blot (FIG. 26E). The quantitative data are shown as mean values±SD (n=6). ***P<0.001, n.s., not significant. (FIG. 26F, FIG. 26G) DU145 cells were infected with lentivirus expressing indicated shRNAs and/or plasmids. After 48 hours puromycin selection, cells were treated with I-BET (5 μM), PD0332991 (5 μM) or both followed by MTS assay (FIG. 26F) and Western blot (FIG. 26G). All data are shown as mean values±SD (n=6). *P<0.05, ***P<0.001, n.s., not significant. (FIG. 26H) DU145 cells were infected with lentivirus expressing control, DUB3 expressing vector and/or control or BRD4-specific shRNAs. After 48 hours puromycin selection, cells were plated for clonogenic survival assay. Cells were treated with a series of JQ1 concentrations for 3 days and harvested at day 10. Colonies with more than 50 cells were counted. IC50 is shown as a dotted line in the middle of the graph. […] OE, overexpression. KD, shRNA-mediated knockdown. (FIG. 26I) DU145 cells were infected with lentivirus as in (FIG. 26H) for 48 hours and then treated with 0.5 μM of JQ1 for 3 days and harvested at day 10. Colonies were photographed and quantified. Data represent means±SEM (n=3); P values were determined by the unpaired two-tailed Student's t-test. *P<0.05, **P<0.01.
# An appropriate number of cells for different dosages of JQ1 were plated onto 6-well plate and treated with JQ1 for three days. After three-day treatment, the medium was changed with fresh medium without drugs for another 8 days. […] Colonies with more than 50 cells were counted. […]
structure (smiles),measurement,setting,value
Cc1sc2c(c1C)C(c1ccc(Cl)cc1)=N[C@@H](CC(=O)OC(C)(C)C)c1nnc(C)n1-2 [JQ1],IC50,DU145 BRD4 KD (shRNA knockdown),278 nM
same,IC50,DU145 DUB3 OE (overexpression),576 nM
same,IC50,DU145 DUB3 OE BRD4 KD,297 nM
same,IC50,DU145 EV (control),421 nM

# Source: patent publication US12290521B2, “Methods and materials for identifying and treating BET inhibitor-resistant cancers” (Mayo Foundation for Medical Education and Research, priority 2018, dated 2025)
